Laboratory results as given in publication PMC5218480 (PLoS ONE, 2017).

System: MV-4-11 cells
Assay: Gene expression microarray analysis (Affymetrix PrimeView) and GSEA
Type: cell-based, human
Parameters: RFU PODN (11730768_x_at) / Fold change /veh PODN (11730768_x_at) / RFU LINC00158 (11744669_a_at) / Fold change /veh LINC00158 (11744669_a_at) / RFU DUSP10 (11751237_a_at) / Fold change /veh DUSP10 (11751237_a_at) / RFU ID3 (11757404_x_at) / Fold change /veh ID3 (11757404_x_at) / RFU PLEKHG5 (11737974_s_at) / Fold change /veh PLEKHG5 (11737974_s_at) / RFU LRRC4B (11730491_at) / Fold change /veh LRRC4B (11730491_at) / RFU GIMAP4 (11747438_a_at) / Fold change /veh GIMAP4 (11747438_a_at) / RFU KRT8 (11758183_x_at) / Fold change /veh KRT8 (11758183_x_at) / RFU CNN1 (11734310_a_at) / Fold change /veh CNN1 (11734310_a_at) / RFU VPS37D (11726825_at) / Fold change /veh VPS37D (11726825_at) / RFU C10orf10 (11716522_x_at) / Fold change /veh C10orf10 (11716522_x_at) / RFU KIR2DL2 /// KIR2DL4 /// KIR2DL5A /// KIR2DL5B /// KIR2DS1 /// KIR2DS2 /// KIR2DS3 /// KIR2DS4 /// KIR3DL3 /// KIR3DL3 /// KIR3DS1 (11738374_at) / Fold change /veh KIR2DL2 /// KIR2DL4 /// KIR2DL5A /// KIR2DL5B /// KIR2DS1 /// KIR2DS2 /// KIR2DS3 /// KIR2DS4 /// KIR3DL3 /// KIR3DL3 /// KIR3DS1 (11738374_at) / RFU C1QL1 (11718748_at) / Fold change /veh C1QL1 (11718748_at) / RFU TMPRSS4 (11747572_a_at) / Fold change /veh TMPRSS4 (11747572_a_at) / RFU HAMP (11756126_x_at) / Fold change /veh HAMP (11756126_x_at) / RFU RNFT2 (11725882_a_at) / Fold change /veh RNFT2 (11725882_a_at) / RFU NR4A2 (11747474_a_at) / Fold change /veh NR4A2 (11747474_a_at) / RFU ABCC12 (11746883_a_at) / Fold change /veh ABCC12 (11746883_a_at) / RFU TMEM136 (11760407_x_at) / Fold change /veh TMEM136 (11760407_x_at) / RFU CLDN22 /// WWC2 (11732394_at) / Fold change /veh CLDN22 /// WWC2 (11732394_at) / RFU HLA-DPB1 (11760878_x_at) / Fold change /veh HLA-DPB1 (11760878_x_at) / RFU SPINT1 (11716480_a_at) / Fold change /veh SPINT1 (11716480_a_at) / RFU GAP43 (11754022_s_at) / Fold change /veh GAP43 (11754022_s_at) / RFU A4GNT (11735810_at) / Fold change /veh A4GNT (11735810_at) / RFU PRB3 (11715151_x_at) / Fold change /veh PRB3 (11715151_x_at) / RFU TUBB4B (11761932_at) / Fold change /veh TUBB4B (11761932_at) / RFU CAPN14 (11732068_a_at) / Fold change /veh CAPN14 (11732068_a_at) / RFU TMCC2 (11721928_a_at) / Fold change /veh TMCC2 (11721928_a_at) / RFU IRGQ (11745062_a_at) / Fold change /veh IRGQ (11745062_a_at) / RFU FAM174B (11720279_a_at) / Fold change /veh FAM174B (11720279_a_at) / RFU TMPRSS4 (11748680_a_at) / Fold change /veh TMPRSS4 (11748680_a_at) / RFU FAM212B (11763350_a_at) / Fold change /veh FAM212B (11763350_a_at) / RFU PLEKHG5 (11743358_a_at) / Fold change /veh PLEKHG5 (11743358_a_at) / RFU ZSCAN30 (11745921_a_at) / Fold change /veh ZSCAN30 (11745921_a_at) / RFU CMKLR1 (11741424_a_at) / Fold change /veh CMKLR1 (11741424_a_at) / RFU LOC101060620 /// MAPK8IP1 (11723275_at) / Fold change /veh LOC101060620 /// MAPK8IP1 (11723275_at) / RFU SPTSSB (11747773_x_at) / Fold change /veh SPTSSB (11747773_x_at) / RFU PRSS12 (11739890_at) / Fold change /veh PRSS12 (11739890_at) / RFU BIN1 (11741810_x_at) / Fold change /veh BIN1 (11741810_x_at) / RFU WNT11 (11732464_a_at) / Fold change /veh WNT11 (11732464_a_at) / RFU C10orf10 (11716521_a_at) / Fold change /veh C10orf10 (11716521_a_at) / RFU C5orf56 (11738089_at) / Fold change /veh C5orf56 (11738089_at) / RFU CYB561 (11721691_x_at) / Fold change /veh CYB561 (11721691_x_at) / RFU ANKRD19P (11752326_a_at) / Fold change /veh ANKRD19P (11752326_a_at) / RFU OR2T12 /// OR2T33 /// OR2T8 (11738714_s_at) / Fold change /veh OR2T12 /// OR2T33 /// OR2T8 (11738714_s_at) / RFU VCAN (11748164_a_at) / Fold change /veh VCAN (11748164_a_at) / RFU JSRP1 (11732532_at) / Fold change /veh JSRP1 (11732532_at) / RFU KRTAP10-11 (11738290_x_at) / Fold change /veh KRTAP10-11 (11738290_x_at) / RFU MYO3A (11730013_a_at) / Fold change /veh MYO3A (11730013_a_at) / RFU EBF3 (11725865_a_at) / Fold change /veh EBF3 (11725865_a_at) / RFU CAMK2N1 (11719241_x_at) / Fold change /veh CAMK2N1 (11719241_x_at) / RFU C5orf56 (11738088_a_at) / Fold change /veh C5orf56 (11738088_a_at) / RFU OLFML3 (11715873_a_at) / Fold change /veh OLFML3 (11715873_a_at) / RFU LOC100653217 /// NTM (11731650_a_at) / Fold change /veh LOC100653217 /// NTM (11731650_a_at) / RFU MAPK11 (11762145_a_at) / Fold change /veh MAPK11 (11762145_a_at) / RFU FIZ1 (11724087_x_at) / Fold change /veh FIZ1 (11724087_x_at) / RFU OASL (11726364_x_at) / Fold change /veh OASL (11726364_x_at) / RFU SOX15 (11748057_x_at) / Fold change /veh SOX15 (11748057_x_at) / RFU CD79A (11719716_a_at) / Fold change /veh CD79A (11719716_a_at) / RFU HIST1H1D (11736915_at) / Fold change /veh HIST1H1D (11736915_at) / RFU CASKIN2 (11723855_a_at) / Fold change /veh CASKIN2 (11723855_a_at) / RFU LOC730098 (11760151_x_at) / Fold change /veh LOC730098 (11760151_x_at) / RFU OR4N2 (11742367_at) / Fold change /veh OR4N2 (11742367_at) / RFU PRRT2 (11749266_a_at) / Fold change /veh PRRT2 (11749266_a_at) / RFU SNX32 (11753110_a_at) / Fold change /veh SNX32 (11753110_a_at) / RFU CDHR5 (11726645_a_at) / Fold change /veh CDHR5 (11726645_a_at) / RFU RCAN1 (11760418_a_at) / Fold change /veh RCAN1 (11760418_a_at) / RFU FAM167A (11723789_a_at) / Fold change /veh FAM167A (11723789_a_at) / RFU FAM26E (11764081_at) / Fold change /veh FAM26E (11764081_at) / RFU ISYNA1 (11749810_s_at) / Fold change /veh ISYNA1 (11749810_s_at) / RFU ACY1 (11761880_at) / Fold change /veh ACY1 (11761880_at) / RFU 11764098_at / Fold change /veh 11764098_at / RFU SAMD14 (11745864_x_at) / Fold change /veh SAMD14 (11745864_x_at) / RFU NPB (11741838_a_at) / Fold change /veh NPB (11741838_a_at) / RFU TMPRSS6 (11731388_a_at) / Fold change /veh TMPRSS6 (11731388_a_at) / RFU KRTAP10-2 (11738614_at) / Fold change /veh KRTAP10-2 (11738614_at) / RFU ARHGAP8 /// PRR5-ARHGAP8 (11727945_x_at) / Fold change /veh ARHGAP8 /// PRR5-ARHGAP8 (11727945_x_at) / RFU KRTAP5-7 /// NADSYN1 (11734609_at) / Fold change /veh KRTAP5-7 /// NADSYN1 (11734609_at) / RFU RASL12 (11751679_a_at) / Fold change /veh RASL12 (11751679_a_at) / RFU CDKN2B (11736163_a_at) / Fold change /veh CDKN2B (11736163_a_at) / RFU PRF1 (11729649_at) / Fold change /veh PRF1 (11729649_at) / RFU, ZNF638 /// ZNF638-IT1 / Fold change vs veh, ZNF638 /// ZNF638-IT1 / RFU, PANK3 / Fold change vs veh, PANK3 / RFU, SH3YL1 / Fold change vs veh, SH3YL1 / RFU, ZEB2 / Fold change vs veh, ZEB2 / RFU, NRIP1 / Fold change vs veh, NRIP1 / RFU, PTTG1IP / Fold change vs veh, PTTG1IP / RFU, CAPN2 / Fold change vs veh, CAPN2 / RFU, MED14 / Fold change vs veh, MED14 / RFU, SNORA58 / Fold change vs veh, SNORA58 / RFU, C1orf63 / Fold change vs veh, C1orf63 / RFU, LRRFIP1 / Fold change vs veh, LRRFIP1 / RFU, NDUFAF7 / Fold change vs veh, NDUFAF7 / RFU, SLC12A2 / Fold change vs veh, SLC12A2 / RFU, IBTK / Fold change vs veh, IBTK / RFU, ESF1 / Fold change vs veh, ESF1 / Fold change vs veh, TMEM50B / RFU, TAOK1 / Fold change vs veh, TAOK1 / RFU, ACBD3 / Fold change vs veh, ACBD3 / RFU, TMA16 / Fold change vs veh, TMA16 / RFU, RWDD3 / Fold change vs veh, RWDD3 / RFU, BCAT1 / Fold change vs veh, BCAT1 / RFU, EDEM3 / Fold change vs veh, EDEM3 / RFU, TMEM33 / Fold change vs veh, TMEM33 / RFU, WDR75 / Fold change vs veh, WDR75 / RFU, AHCTF1 / Fold change vs veh, AHCTF1 / RFU, TFRC / Fold change vs veh, TFRC / RFU, ZDHHC17 / Fold change vs veh, ZDHHC17 / RFU, NOM1 / Fold change vs veh, NOM1 / RFU, ARL8B / Fold change vs veh, ARL8B / RFU, ZBTB11 / Fold change vs veh, ZBTB11 / RFU, TAMM41 / Fold change vs veh, TAMM41 / RFU, KIAA1704 /// LOC100996395 / Fold change vs veh, KIAA1704 /// LOC100996395 / RFU, ING1 / Fold change vs veh, ING1 / RFU, TRMT61B / Fold change vs veh, TRMT61B / RFU, FUBP3 / Fold change vs veh, FUBP3 / RFU, TP53 / Fold change vs veh, TP53 / RFU, TNKS2 / Fold change vs veh, TNKS2 / RFU, ZFP14 / Fold change vs veh, ZFP14 / RFU, ACTR2 / Fold change vs veh, ACTR2 / RFU, PPP3R1 / Fold change vs veh, PPP3R1 / RFU, PIK3R1 / Fold change vs veh, PIK3R1 / RFU, HNRNPA1 / Fold change vs veh, HNRNPA1 / RFU, RNF170 / Fold change vs veh, RNF170 / RFU, ZNF28 / Fold change vs veh, ZNF28 / RFU, RNGTT / Fold change vs veh, RNGTT / RFU, OGT / Fold change vs veh, OGT / RFU, BRD1 / Fold change vs veh, BRD1 / RFU, MARS / Fold change vs veh, MARS / RFU, ZNF655 / Fold change vs veh, ZNF655 / RFU, FAHD1 / Fold change vs veh, FAHD1 / RFU, BDP1 / Fold change vs veh, BDP1 / RFU, LRRCC1 / Fold change vs veh, LRRCC1 / RFU, ARID1A / Fold change vs veh, ARID1A / RFU, ZNF146 / Fold change vs veh, ZNF146 / RFU, ZNF330 / Fold change vs veh, ZNF330 / RFU, GPN3 / Fold change vs veh, GPN3 / RFU, C9orf123 / Fold change vs veh, C9orf123 / RFU, N4BP2L2 / Fold change vs veh, N4BP2L2 / RFU, ARFIP1 / Fold change vs veh, ARFIP1 / RFU, FAM179B / Fold change vs veh, FAM179B / RFU, BCL10 / Fold change vs veh, BCL10 / RFU, UHRF1BP1L / Fold change vs veh, UHRF1BP1L / RFU, BET1 / Fold change vs veh, BET1 / RFU, CNOT2 / Fold change vs veh, CNOT2 / RFU, ZNF268 / Fold change vs veh, ZNF268 / Fold change vs veh, ZNF507 / RFU, DGCR2 / Fold change vs veh, DGCR2 / RFU, WDSUB1 / Fold change vs veh, WDSUB1 / Fold change vs veh, HSP90B1 /// MIR3652 / RFU, ADSS / Fold change vs veh, ADSS / RFU, GK / Fold change vs veh, GK / RFU, ZNF148 / Fold change vs veh, ZNF148 / RFU, TAF9 / Fold change vs veh, TAF9 / RFU, SLC1A5 / Fold change vs veh, SLC1A5 / RFU, SLMO2 / Fold change vs veh, SLMO2 / RFU, ABCC4 / Fold change vs veh, ABCC4 / RFU, LOC101060439 /// RAP1B / Fold change vs veh, LOC101060439 /// RAP1B / RFU, RFX7 / Fold change vs veh, RFX7 / RFU, GTPBP10 / Fold change vs veh, GTPBP10 / RFU, CNEP1R1 / Fold change vs veh, CNEP1R1 / RFU, BIVM-ERCC5 /// ERCC5 / Fold change vs veh, BIVM-ERCC5 /// ERCC5 / RFU, ILF3 / Fold change vs veh, ILF3 / RFU 11762660_at / Fold change /veh 11762660_at / RFU VCAN (11757783_s_at) / Fold change /veh VCAN (11757783_s_at) / RFU DDX43 (11728927_at) / Fold change /veh DDX43 (11728927_at) / RFU KRT8 (11758188_x_at) / Fold change /veh KRT8 (11758188_x_at) / RFU NKD1 (11759106_at) / Fold change /veh NKD1 (11759106_at) / RFU SRD5A1 (11742802_a_at) / Fold change /veh SRD5A1 (11742802_a_at) / RFU TPSAB1 /// TPSB2 (11721975_s_at) / Fold change /veh TPSAB1 /// TPSB2 (11721975_s_at) / RFU GSTM3 (11746129_a_at) / Fold change /veh GSTM3 (11746129_a_at) / RFU IL23R (11737362_x_at) / Fold change /veh IL23R (11737362_x_at) / RFU TMEM51 (11727254_a_at) / Fold change /veh TMEM51 (11727254_a_at) / RFU PIWIL2 (11732686_x_at) / Fold change /veh PIWIL2 (11732686_x_at) / RFU ORM1 (11744905_x_at) / Fold change /veh ORM1 (11744905_x_at) / RFU CCDC152 (11743942_at) / Fold change /veh CCDC152 (11743942_at) / RFU ECM1 (11717891_a_at) / Fold change /veh ECM1 (11717891_a_at) / RFU IL23R (11748794_a_at) / Fold change /veh IL23R (11748794_a_at) / RFU TNFAIP8L3 (11732012_x_at) / Fold change /veh TNFAIP8L3 (11732012_x_at) / RFU MBOAT4 (11741988_at) / Fold change /veh MBOAT4 (11741988_at) / RFU 11764193_at / Fold change /veh 11764193_at / RFU TMEM53 (11763286_at) / Fold change /veh TMEM53 (11763286_at) / RFU MAGEB2 (11727129_at) / Fold change /veh MAGEB2 (11727129_at) / RFU TMEM200A (11744735_a_at) / Fold change /veh TMEM200A (11744735_a_at) / RFU CCDC152 (11751479_a_at) / Fold change /veh CCDC152 (11751479_a_at) / RFU FAM211A (11726209_a_at) / Fold change /veh FAM211A (11726209_a_at) / RFU RGS16 (11746705_a_at) / Fold change /veh RGS16 (11746705_a_at) / RFU VCAN (11755009_s_at) / Fold change /veh VCAN (11755009_s_at) / RFU RHOB (11743442_s_at) / Fold change /veh RHOB (11743442_s_at) / RFU RGS16 (11720943_a_at) / Fold change /veh RGS16 (11720943_a_at) / RFU RGS16 (11720944_at) / Fold change /veh RGS16 (11720944_at) / RFU, VPS4B / Fold change vs veh, VPS4B / RFU, CREB1 / Fold change vs veh, CREB1 / RFU, DNAJC13 / Fold change vs veh, DNAJC13 / RFU, GNAQ / Fold change vs veh, GNAQ / RFU, CDK5R1 / Fold change vs veh, CDK5R1 / RFU, ZRANB3 / Fold change vs veh, ZRANB3 / RFU, CUL4A / Fold change vs veh, CUL4A / RFU, CCNY / Fold change vs veh, CCNY / RFU, UFL1 / Fold change vs veh, UFL1 / RFU, COG3 / Fold change vs veh, COG3 / RFU, DIAPH2 / Fold change vs veh, DIAPH2 / RFU, SKA2 / Fold change vs veh, SKA2 / RFU, AFF3 / Fold change vs veh, AFF3 / RFU, LMF1 / Fold change vs veh, LMF1 / RFU, IPO11 / Fold change vs veh, IPO11 / RFU, DFFB / Fold change vs veh, DFFB / RFU, FOXP1 / Fold change vs veh, FOXP1 / RFU, CARD8 / Fold change vs veh, CARD8 / RFU, STRN3 / Fold change vs veh, STRN3 / RFU, ADK / Fold change vs veh, ADK / RFU, RASSF2 / Fold change vs veh, RASSF2 / RFU, WIPF1 / Fold change vs veh, WIPF1 / RFU, LARP1B / Fold change vs veh, LARP1B / RFU, RASA1 / Fold change vs veh, RASA1 / RFU, RB1 / Fold change vs veh, RB1 / RFU, PPFIA1 / Fold change vs veh, PPFIA1 / RFU, MAT2A / Fold change vs veh, MAT2A / RFU, CCT5 / Fold change vs veh, CCT5 / RFU, WDR92 / Fold change vs veh, WDR92 / RFU, CUX1 / Fold change vs veh, CUX1 / RFU, TTC7A / Fold change vs veh, TTC7A / RFU, TMEM135 / Fold change vs veh, TMEM135 / RFU, DEPTOR / Fold change vs veh, DEPTOR / RFU, CPM / Fold change vs veh, CPM / RFU, DNAJB6 / Fold change vs veh, DNAJB6 / RFU, CACNA2D3 / Fold change vs veh, CACNA2D3 / RFU, DTX4 / Fold change vs veh, DTX4 / RFU, TFCP2 / Fold change vs veh, TFCP2 / RFU, GMCL1 /// GMCL1P1 / Fold change vs veh, GMCL1 /// GMCL1P1 / RFU, AEBP2 / Fold change vs veh, AEBP2 / RFU, SNHG1 /// SNORD22 /// SNORD25 /// SNORD26 /// SNORD27 /// SNORD28 /// SNORD29 /// SNORD31 / Fold change vs veh, SNHG1 /// SNORD22 /// SNORD25 /// SNORD26 /// SNORD27 /// SNORD28 /// SNORD29 /// SNORD31 / Fold change (Aza/veh), C12orf56 (ProbeSet 11735607_a_at) / Fold change (ACY-1035/veh), C12orf56 (ProbeSet 11735607_a_at) / Fold change (Aza/veh), FGFR1OP (ProbeSet 11751329_s_at) / Fold change (ACY-1035/veh), FGFR1OP (ProbeSet 11751329_s_at) / Fold change (Aza/veh), VPS36 (ProbeSet 11739960_a_at) / Fold change (ACY-1035/veh), VPS36 (ProbeSet 11739960_a_at) / RFU SYPL1 (11715823_x_at) / Fold change /veh SYPL1 (11715823_x_at) / RFU IGFBP7 (11715501_s_at) / Fold change /veh IGFBP7 (11715501_s_at) / RFU REEP3 (11722064_at) / Fold change /veh REEP3 (11722064_at) / RFU IGLL1 (11728026_x_at) / Fold change /veh IGLL1 (11728026_x_at): dose or concentration left out as unconfirmed
Conditions: ProbeSet 11731583_a_at; LIST D

With `Nc1ccc(-c2cccs2)cc1NC(=O)c1ccc2c(c1)cc(C1CC1)n2CCN1CCOCC1` [ACY-1035] the “Fold change vs veh, LARP1B” value was 0.85.
